Legend:
Type in all cases: biochemical
PAK3 = PAK3 (Homo sapiens, UniProt O75914); assay: In vitro PAK inhibition assay (Z'-LYTE, SelectScreen), PAK3; settings: read-out: PAK3 IC50
Outline: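 Z'-LYTE FRET format: PAK3 with Ser/Thr 20 peptide in 50 mM HEPES pH 7.5, 0.01% BRIJ-35, 10 mM MgCl2, 1 mM EGTA, 1% DMSO final. Kinase reaction 60 min at room temperature, then 60 min development and fluorescence read.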

PAK2 (PAK65) = PAK2 (PAK65) (Homo sapiens, UniProt Q13177); assay: In vitro PAK inhibition assay (Z'-LYTE, SelectScreen), PAK2; settings: read-out: PAK2 IC50
Outline: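 Z'-LYTE FRET readout using Ser/Thr 20 peptide (2 μM) with 0.29–6 ng PAK2 in 50 mM HEPES pH 7.5, 0.01% BRIJ-35, 10 mM MgCl2, 1 mM EGTA, 1% DMSO. Reaction and development each ran 60 min at room temperature.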

PAK1 = PAK1 (Homo sapiens, UniProt Q13153); assay: In vitro PAK inhibition assay (Z'-LYTE, SelectScreen), PAK1; settings: read-out: PAK1 IC50
Outline: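 FRET-based Z'-LYTE readout: PAK1 phosphorylates Ser/Thr 19 peptide in 50 mM HEPES pH 7.5, 0.01% BRIJ-35, 10 mM MgCl2, 1 mM EGTA, 1% DMSO, 60 min at room temperature, followed by 60 min development.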

PAK4 = PAK4 (Homo sapiens, UniProt O96013); assay: In vitro PAK inhibition assay (Z'-LYTE, SelectScreen), PAK4
Outline: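 Z'-LYTE FRET assay with 0.1-0.75 ng PAK-4 and 2 μM Ser/Thr 20 peptide in 50 mM HEPES pH 7.5, 10 mM MgCl2, 1 mM EGTA, 0.01% BRIJ-35, 1% DMSO; ATP near apparent Km. 1 h kinase reaction at room temperature, then 1 h development; IC50 from 10-point 3-fold titrations fitted to a sigmoidal dose-response.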

Sequence of PAK2 (PAK65) (Q13177 whole entry): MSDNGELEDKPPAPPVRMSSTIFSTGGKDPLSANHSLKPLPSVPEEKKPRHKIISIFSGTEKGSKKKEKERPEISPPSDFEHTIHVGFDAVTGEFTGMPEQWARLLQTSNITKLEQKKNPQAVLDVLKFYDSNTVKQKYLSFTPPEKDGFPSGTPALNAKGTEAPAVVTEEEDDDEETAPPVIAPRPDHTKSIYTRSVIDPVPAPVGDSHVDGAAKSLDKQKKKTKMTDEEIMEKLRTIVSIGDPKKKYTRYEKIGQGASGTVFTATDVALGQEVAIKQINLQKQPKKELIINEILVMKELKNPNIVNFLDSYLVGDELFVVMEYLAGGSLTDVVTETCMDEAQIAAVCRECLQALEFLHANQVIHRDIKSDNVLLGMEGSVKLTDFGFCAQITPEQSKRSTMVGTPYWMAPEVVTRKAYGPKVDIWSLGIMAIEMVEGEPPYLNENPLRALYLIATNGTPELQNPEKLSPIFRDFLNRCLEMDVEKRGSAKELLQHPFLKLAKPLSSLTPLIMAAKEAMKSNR
Sequence of PAK4 (O96013 whole entry): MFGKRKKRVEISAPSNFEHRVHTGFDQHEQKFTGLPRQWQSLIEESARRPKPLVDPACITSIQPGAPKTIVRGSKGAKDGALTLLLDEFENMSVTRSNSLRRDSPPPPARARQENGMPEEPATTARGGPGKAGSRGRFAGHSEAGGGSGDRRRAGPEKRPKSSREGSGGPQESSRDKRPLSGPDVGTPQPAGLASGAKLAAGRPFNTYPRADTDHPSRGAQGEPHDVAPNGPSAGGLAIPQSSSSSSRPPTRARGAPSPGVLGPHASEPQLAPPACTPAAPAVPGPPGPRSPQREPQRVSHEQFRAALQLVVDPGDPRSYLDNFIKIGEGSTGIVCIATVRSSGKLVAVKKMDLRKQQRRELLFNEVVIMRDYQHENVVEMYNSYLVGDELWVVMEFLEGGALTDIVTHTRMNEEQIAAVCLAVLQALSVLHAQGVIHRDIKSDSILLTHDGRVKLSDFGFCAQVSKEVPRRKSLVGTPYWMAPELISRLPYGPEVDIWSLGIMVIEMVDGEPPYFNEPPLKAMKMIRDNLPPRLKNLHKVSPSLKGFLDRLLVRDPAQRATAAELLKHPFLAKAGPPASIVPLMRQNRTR
Sequence of PAK1 (Q13153 whole entry): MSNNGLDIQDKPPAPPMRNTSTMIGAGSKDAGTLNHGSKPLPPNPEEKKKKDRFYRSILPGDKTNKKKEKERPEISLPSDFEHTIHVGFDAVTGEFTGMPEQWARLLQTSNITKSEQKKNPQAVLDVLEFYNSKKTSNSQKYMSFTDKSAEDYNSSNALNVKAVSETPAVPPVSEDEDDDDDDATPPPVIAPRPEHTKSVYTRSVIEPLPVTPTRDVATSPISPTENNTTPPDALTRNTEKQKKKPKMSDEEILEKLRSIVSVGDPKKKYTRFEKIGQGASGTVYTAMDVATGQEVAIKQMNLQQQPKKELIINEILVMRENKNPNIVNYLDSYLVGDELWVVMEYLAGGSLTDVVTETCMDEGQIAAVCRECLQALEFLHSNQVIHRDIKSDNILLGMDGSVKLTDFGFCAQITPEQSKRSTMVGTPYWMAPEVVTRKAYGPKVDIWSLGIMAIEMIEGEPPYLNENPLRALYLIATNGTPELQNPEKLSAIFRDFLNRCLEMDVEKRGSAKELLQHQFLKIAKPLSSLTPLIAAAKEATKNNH
Sequence of PAK3 (O75914 1-544 isoform O75914-2): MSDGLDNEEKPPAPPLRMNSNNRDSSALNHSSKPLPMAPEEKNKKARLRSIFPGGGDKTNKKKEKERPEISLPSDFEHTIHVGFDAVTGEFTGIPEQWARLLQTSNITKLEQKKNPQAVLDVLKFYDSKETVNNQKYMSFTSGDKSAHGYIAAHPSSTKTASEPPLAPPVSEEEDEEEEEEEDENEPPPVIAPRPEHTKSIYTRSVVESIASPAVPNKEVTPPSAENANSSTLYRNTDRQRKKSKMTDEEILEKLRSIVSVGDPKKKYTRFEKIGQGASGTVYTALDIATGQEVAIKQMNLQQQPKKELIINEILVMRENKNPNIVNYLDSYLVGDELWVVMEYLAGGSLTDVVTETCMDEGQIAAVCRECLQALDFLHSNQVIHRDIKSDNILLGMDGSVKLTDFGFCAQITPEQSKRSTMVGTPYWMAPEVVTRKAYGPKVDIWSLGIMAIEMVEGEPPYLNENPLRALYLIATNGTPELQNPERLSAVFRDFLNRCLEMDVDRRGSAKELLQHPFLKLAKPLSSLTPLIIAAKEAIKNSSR

Compound | IC50 (PAK3) | IC50 (PAK2 (PAK65)) | IC50 (PAK1) | IC50 (PAK4)
CCn1c(=O)c(-c2ccc(-c3ccn(C)n3)cc2Cl)cc2cnc(N[C@@H]3CCOC3)nc21 [Example 63] | 500 to 5000 nM | 50 to 500 nM | 50 to 500 nM | > 5000 nM
CCn1c(=O)c(-c2ccc(-c3cncc(C)n3)cc2Cl)cc2cnc(NC3CCOC(C)(C)C3)nc21 (stereo not shown) [Example 31] | 50 to 500 nM | 50 to 500 nM | 50 to 500 nM | > 5000 nM
CCn1c(=O)c(-c2ccc(-c3cnc(C)cn3)cc2Cl)cc2cnc(N[C@@H]3CCOC3)nc21 [Example 50] | 500 to 5000 nM | 50 to 500 nM | 50 to 500 nM | > 5000 nM
CCn1c(=O)c(-c2ccc(-c3noc(C)n3)cc2Cl)cc2cnc(N[C@@H]3CCOC3)nc21 [Example 54] | 50 to 500 nM | 50 to 500 nM | 50 to 500 nM | > 5000 nM
Cc1nccnc1-c1ccc(-c2cc3cnc(N[C@@H]4CCOC4)nc3n(Cc3cccnc3)c2=O)c(Cl)c1 [Example 122, (R)-6-(2-chloro-4-(3-methylpyrazin-2-yl)phenyl)-8-(pyridin-3-ylmethyl)-2-((tetrahydrofuran-3-yl)amino)pyrido[2,3-d]pyrimidin-7(8H)-one] | 50 to 500 nM | < 50 nM | 50 to 500 nM | > 5000 nM
CCn1c(=O)c(-c2ccc(-c3ccnc(C)n3)cc2Cl)cc2cnc(NC3CCOCC3)nc21 [Example 8] | 50 to 500 nM | 50 to 500 nM | 50 to 500 nM | > 5000 nM
CCn1c(=O)c(-c2ccc(-c3nccnc3C)cc2Cl)cc2cnc(NC3CCCNC3)nc21 (stereo not shown) [Example 82] | 500 to 5000 nM | 50 to 500 nM | 50 to 500 nM | > 5000 nM
CCn1c(=O)c(-c2ccc(-c3nccnc3C)cc2Cl)cc2cnc(N[C@@H]3CCOC3)nc21 [Example 58] | 500 to 5000 nM | 50 to 500 nM | 50 to 500 nM | > 5000 nM
Cc1cncc(-c2ccc(-c3cc4cnc(N[C@@H]5CCOC5)nc4n(CCN)c3=O)c(Cl)c2)n1 [Example 99] | 50 to 500 nM | < 50 nM | < 50 nM | > 5000 nM
CCn1c(=O)c(-c2ccc(-c3cncc(C)n3)cc2Cl)cc2cnc(NC3CCC(CCN(C)C)CC3)nc21 (stereo not shown) [Example 70] | 50 to 500 nM | < 50 nM | < 50 nM | > 5000 nM
Cc1nccnc1-c1ccc(-c2cc3cnc(NC4CCOCC4)nc3n(C3CCCC3)c2=O)c(Cl)c1 [Example 88, 6-(2-chloro-4-(3-methylpyrazin-2-yl)phenyl)-8-cyclopentyl-2-((tetrahydro-2H-pyran-4-yl)amino)pyrido[2,3-d]pyrimidin-7(8H)-one] | 50 to 500 nM | 50 to 500 nM | 50 to 500 nM | > 5000 nM

The remaining lines, values ahead:

IC50 (PAK3) | IC50 (PAK2 (PAK65)) | IC50 (PAK1) | IC50 (PAK4) | Compound
50 to 500 nM | 50 to 500 nM | 50 to 500 nM | > 5000 nM | CCn1c(=O)c(-c2ccc(-c3cncc(C)n3)cc2Cl)cc2cnc(NCCOCCN)nc21 [Example 128]
50 to 500 nM | < 50 nM | < 50 nM | > 5000 nM | CCn1c(=O)c(-c2ccc(-c3cncc(C)n3)cc2Cl)cc2cnc(NCC3CCC(N)CC3)nc21 (stereo not shown) [Example 131]
50 to 500 nM | < 50 nM | < 50 nM | > 5000 nM | CCn1c(=O)c(-c2ccc(-c3cncc(C)n3)cc2Cl)cc2cnc(NCCCOCCCN)nc21 [Example 129]
< 50 nM | < 50 nM | < 50 nM | > 5000 nM | CCn1c(=O)c(-c2ccc(-c3cncc(C)n3)cc2Cl)cc2cnc(N[C@H]3CC[C@H](CN(C)C)CC3)nc21 [Example 84, 6-(2-chloro-4-(6-methylpyrazin-2-yl)phenyl)-2-((trans-1,4)-4-((dimethylamino)methyl)cyclohexylamino)-8-ethylpyrido[2,3-d]pyrimidin-7(8H)-one]
< 50 nM | < 50 nM | < 50 nM | 500 to 5000 nM | Cc1cncc(-c2ccc(-c3cc4cnc(NCC(C)C)nc4n([C@H]4CC[C@H](N)CC4)c3=O)c(Cl)c2)n1 [Example 115]

Source: patent US20130116263A1, “PAK INHIBITORS FOR THE TREATMENT OF CELL PROLIFERATIVE DISORDERS” (AFRAXIS, INC., priority 2011, published 2013)
